# Legend:
# Settings in all cases: 72 h
# MFM-223 [1] = test system: MFM-223
# Method in brief: (§1)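 Compound dissolved in 5 µl medium was placed in 384-well plates before 20 µl of breast cancer cell suspension was added, and the plates were incubated for 72 h. Cells then received 2.5 µl CellTiter-Blue for 2 h at 37 °C, and fluorescence was read at 560/590 nm. EC50 values come from percent-inhibition dose-response fits that were censored at the highest concentration, with plates normalised to vehicle and a positive kill control and rows with a zero drug sensitivity score excluded.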
# BT-474 [2] = test system: BT-474
# Method in brief: as §1
# HCC1143 [3] = test system: HCC1143
# Method in brief: as §1
# MDA-MB-436 = test system: MDA-MB-436
# Method in brief: as §1
# HCC1937 = test system: HCC1937
# Method in brief: as §1
# HCC1599 [4] = test system: HCC1599
# Method in brief: as §1
# MDA-MB-468 [5] = test system: MDA-MB-468
# Method in brief: as §1
# BT-549 [6] = test system: BT-549
# Method in brief: as §1
# SK-BR-3 [7] = test system: SK-BR-3
# Method in brief: as §1
# CAL-120 [8] = test system: CAL-120
# Method in brief: as §1
# Hs578T [9] = test system: Hs578T
# Method in brief: as §1
# MDA-MB-231 [10] = test system: MDA-MB-231
# Method in brief: as §1
# HDQ-P1 [11] = test system: HDQ-P1
# Method in brief: as §1
# DU-4475 [12] = test system: DU-4475
# Method in brief: as §1
# CAL-148 [13] = test system: CAL-148
# Method in brief: as §1
# MDA-MB-453 [14] = test system: MDA-MB-453
# Method in brief: as §1
# CAL-51 [15] = test system: CAL-51
# Method in brief: as §1
# CAL-85-1 [16] = test system: CAL-85-1
# Method in brief: as §1
# MFM-223 [17] = test system: MFM-223; remark: listed apart in the source
# Procedure: (§2)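 Drug sensitivity and resistance testing (DSRT) of breast cancer cell lines in 384-well plates, 5 concentrations in 10-fold dilutions over a compound-specific 10,000-fold range. After 72 h, cytotoxicity was read by CellTox Green fluorescence and viability by CellTiter-Glo luminescence (multiplexed), normalised to DMSO and benzethonium chloride controls. EC50 is the inflection point of the fitted dose-response curve (bottom asymptote free, so it can be relative for partial curves) and is censored at the highest tested concentration. Rows with DSS 0 (no meaningful response) were excluded.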
# BT-474 [18] = test system: BT-474; remark: listed apart in the source
# Procedure: as §2
# HDQ-P1 [19] = test system: HDQ-P1; remark: listed apart in the source
# Procedure: as §2
# MDA-MB-468 [20] = test system: MDA-MB-468; remark: listed apart in the source
# Procedure: as §2
# BT-549 [21] = test system: BT-549; remark: listed apart in the source
# Procedure: as §2
# CAL-120 [22] = test system: CAL-120; remark: listed apart in the source
# Procedure: as §2
# MCF-10A [23] = test system: MCF-10A
# Procedure: as §2
# Hs578T [24] = test system: Hs578T; remark: listed apart in the source
# Procedure: as §2
# CAL-51 [25] = test system: CAL-51; remark: listed apart in the source
# Procedure: as §2
# CAL-85-1 [26] = test system: CAL-85-1; remark: listed apart in the source
# Procedure: as §2
# MDA-MB-231 [27] = test system: MDA-MB-231; remark: listed apart in the source
# Procedure: as §2
# MFM-223 [28] = test system: MFM-223; remark: listed apart in the source
# Method in brief: (§3)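 Two sequential readouts followed a 72 h incubation of breast cancer cell lines with compound at 5 concentrations in 10-fold steps over a compound-specific 10,000-fold range: CellTox Green fluorescence (485/520 nm) for cell death, then CellTiter-Glo luminescence, after 10 min at room temperature, for viability. Each plate was normalised to 0.1 % DMSO and a positive kill control. Dose-response curves were fitted for EC50, censored at the top concentration.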
# BT-474 [29] = test system: BT-474; remark: listed apart in the source
# Method in brief: as §3
# HDQ-P1 [30] = test system: HDQ-P1; remark: listed apart in the source
# Method in brief: as §3
# DU-4475 [31] = test system: DU-4475; remark: listed apart in the source
# Method in brief: as §3
# HCC1143 [32] = test system: HCC1143; remark: listed apart in the source
# Method in brief: as §3
# HCC1599 [33] = test system: HCC1599; remark: listed apart in the source
# Method in brief: as §3
# MDA-MB-468 [34] = test system: MDA-MB-468; remark: listed apart in the source
# Method in brief: as §3
# SK-BR-3 [35] = test system: SK-BR-3; remark: listed apart in the source
# Method in brief: as §3
# CAL-120 [36] = test system: CAL-120; remark: listed apart in the source
# Method in brief: as §3
# CAL-148 [37] = test system: CAL-148; remark: listed apart in the source
# Method in brief: as §3
# MCF-10A [38] = test system: MCF-10A; remark: listed apart in the source
# Method in brief: as §3
# Hs578T [39] = test system: Hs578T; remark: listed apart in the source
# Method in brief: as §3
# MDA-MB-453 [40] = test system: MDA-MB-453; remark: listed apart in the source
# Method in brief: as §3
# CAL-51 [41] = test system: CAL-51; remark: listed apart in the source
# Method in brief: as §3
# CAL-85-1 [42] = test system: CAL-85-1; remark: listed apart in the source
# Method in brief: as §3
# MDA-MB-231 [43] = test system: MDA-MB-231; remark: listed apart in the source
# Method in brief: as §3
# MDA-MB-453 [44] = test system: MDA-MB-453; remark: listed apart in the source
# Procedure: as §2
smiles,measurement,setting,value
C=CC(=O)Nc1cc2c(Nc3ccc(F)c(Cl)c3)ncnc2cc1OCCCN1CCOCC1 [Canertinib],"EC50, CellTiter-Blue viability",MFM-223 [1],3.02 µM
same,"EC50, CellTiter-Blue viability",BT-474 [2],0.11 µM
same,"EC50, CellTiter-Blue viability",HCC1143 [3],4.17 µM
same,"EC50, CellTiter-Blue viability",MDA-MB-436,0.811 µM
same,"EC50, CellTiter-Blue viability",HCC1937,2.25 µM
same,"EC50, CellTiter-Blue viability",HCC1599 [4],9.08 µM
same,"EC50, CellTiter-Blue viability",MDA-MB-468 [5],0.571 µM
same,"EC50, CellTiter-Blue viability",BT-549 [6],2.48 µM
same,"EC50, CellTiter-Blue viability",SK-BR-3 [7],0.0166 µM
same,"EC50, CellTiter-Blue viability",CAL-120 [8],1.72 µM
same,"EC50, CellTiter-Blue viability",Hs578T [9],3.7 µM
same,"EC50, CellTiter-Blue viability",MDA-MB-231 [10],1.82 µM
same,"EC50, CellTiter-Blue viability",HDQ-P1 [11],0.448 µM
same,"EC50, CellTiter-Blue viability",DU-4475 [12],5.98 µM
same,"EC50, CellTiter-Blue viability",CAL-148 [13],3.37 µM
same,"EC50, CellTiter-Blue viability",MDA-MB-453 [14],0.243 µM
same,"EC50, CellTiter-Blue viability",CAL-51 [15],4.69 µM
same,"EC50, CellTiter-Blue viability",CAL-85-1 [16],0.361 µM
same,"EC50, CellTox Green",MFM-223 [17],6.74 µM
same,"EC50, CellTox Green",BT-474 [18],9.8 µM
same,"EC50, CellTox Green",HDQ-P1 [19],3.47 µM
same,"EC50, CellTox Green",MDA-MB-468 [20],3.21 µM
same,"EC50, CellTox Green",BT-549 [21],9.07 µM
same,"EC50, CellTox Green",CAL-120 [22],6.66 µM
same,"EC50, CellTox Green",MCF-10A [23],1.69 µM
same,"EC50, CellTox Green",Hs578T [24],2.85 µM
same,"EC50, CellTox Green",CAL-51 [25],3.01 µM
same,"EC50, CellTox Green",CAL-85-1 [26],1.62 µM
same,"EC50, CellTox Green",MDA-MB-231 [27],4.92 µM
same,"EC50, CellTiter-Glo",MFM-223 [28],5.5 µM
same,"EC50, CellTiter-Glo",BT-474 [29],2.6 µM
same,"EC50, CellTiter-Glo",HDQ-P1 [30],0.93 µM
same,"EC50, CellTiter-Glo",DU-4475 [31],8.21 µM
same,"EC50, CellTiter-Glo",HCC1143 [32],4.71 µM
same,"EC50, CellTiter-Glo",HCC1599 [33],0.586 µM
same,"EC50, CellTiter-Glo",MDA-MB-468 [34],1.12 µM
same,"EC50, CellTiter-Glo",SK-BR-3 [35],0.0488 µM
same,"EC50, CellTiter-Glo",CAL-120 [36],5.39 µM
same,"EC50, CellTiter-Glo",CAL-148 [37],1.39 µM
same,"EC50, CellTiter-Glo",MCF-10A [38],0.106 µM
same,"EC50, CellTiter-Glo",Hs578T [39],5.45 µM
same,"EC50, CellTiter-Glo",MDA-MB-453 [40],3.02 µM
same,"EC50, CellTiter-Glo",CAL-51 [41],0.573 µM
same,"EC50, CellTiter-Glo",CAL-85-1 [42],0.595 µM
same,"EC50, CellTiter-Glo",MDA-MB-231 [43],1.63 µM
Nc1ncn([C@H]2C[C@H](O)[C@@H](CO)O2)c(=O)n1 [Decitabine],"EC50, CellTiter-Blue viability",BT-474 [2],1.97 µM
same,"EC50, CellTiter-Blue viability",MDA-MB-436,0.0901 µM
same,"EC50, CellTiter-Blue viability",HCC1937,0.737 µM
same,"EC50, CellTiter-Blue viability",HCC1599 [4],> 10 µM
same,"EC50, CellTiter-Blue viability",MDA-MB-468 [5],0.0404 µM
same,"EC50, CellTiter-Blue viability",BT-549 [6],1.8 µM
same,"EC50, CellTiter-Blue viability",SK-BR-3 [7],3.47 µM
same,"EC50, CellTiter-Blue viability",MDA-MB-231 [10],0.096 µM
same,"EC50, CellTiter-Blue viability",DU-4475 [12],6.76 µM
same,"EC50, CellTiter-Blue viability",CAL-148 [13],6.6 µM
same,"EC50, CellTiter-Blue viability",MDA-MB-453 [14],6.49 µM
same,"EC50, CellTiter-Blue viability",CAL-51 [15],2.38 µM
same,"EC50, CellTox Green",MDA-MB-468 [20],> 10 µM
same,"EC50, CellTox Green",MDA-MB-453 [44],> 10 µM
same,"EC50, CellTox Green",CAL-51 [25],0.0289 µM
same,"EC50, CellTiter-Glo",BT-474 [29],> 10 µM
same,"EC50, CellTiter-Glo",HDQ-P1 [30],> 10 µM
same,"EC50, CellTiter-Glo",MDA-MB-468 [34],0.0652 µM
same,"EC50, CellTiter-Glo",Hs578T [39],> 10 µM
same,"EC50, CellTiter-Glo",CAL-51 [41],1.16 µM
